Experimental data: ChEMBL document CHEMBL2375330, “Synthesis of pyrazole encompassing 2-pyridone derivatives as antibacterial agents” (Bioorg Med Chem Lett, 2013)
In brackets after ≈: the same amount, converted by molar mass.

How the values were obtained:
HeLa = test: Cytotoxicity against human HeLa cells by MTT assay; type: cell-based
Pseudomonas aeruginosa = test: microbe, parasite or virus in culture; type: functional; settings: MTCC 1688
Description: Antibacterial activity against Pseudomonas aeruginosa MTCC 1688 by broth dilution method

Staphylococcus aureus = test: Antibacterial activity against Staphylococcus aureus MTCC 96 by broth dilution method; type: functional
Streptococcus pyogenes = test: microbe, parasite or virus in culture; type: functional; settings: MTCC 442
Description: Antibacterial activity against Streptococcus pyogenes MTCC 442 by broth dilution method

Escherichia coli = test: microbe, parasite or virus in culture; type: functional; settings: MTCC 443
Description: Antibacterial activity against Escherichia coli MTCC 443 by broth dilution method

NIH3T3 = test: Cytotoxicity against mouse NIH/3T3 cells by MTT assay; type: cell-based

Compound | IC50 (HeLa) | MIC (Pseudomonas aeruginosa) | MIC (Staphylococcus aureus) | MIC (Streptococcus pyogenes) | MIC (Escherichia coli) | IC50 (NIH3T3)
N#Cc1c(-c2cccc([N+](=O)[O-])c2)c(C#N)c(=O)n(/N=C/c2cn(-c3ccccc3)nc2-c2ccccc2)c1N | > 200 µg/mL | 100 µg/mL (≈ 190 µM) | 250 µg/mL (≈ 475 µM) | 50 µg/mL (≈ 95 µM) | 100 µg/mL (≈ 190 µM) | 124 µg/mL (≈ 236 µM)
N#Cc1c(-c2ccc([N+](=O)[O-])cc2)c(C#N)c(=O)n(/N=C/c2cn(-c3ccccc3)nc2-c2ccccc2)c1N | > 200 µg/mL | 25 µg/mL (≈ 47.5 µM) | 50 µg/mL (≈ 95 µM) | 12.5 µg/mL (≈ 23.7 µM) | 12.5 µg/mL (≈ 23.7 µM) | 84 µg/mL (≈ 160 µM)
N#Cc1c(-c2ccccc2Br)c(C#N)c(=O)n(/N=C/c2cn(-c3ccccc3)nc2-c2ccccc2)c1N | > 200 µg/mL | 250 µg/mL (≈ 446 µM) | 12.5 µg/mL (≈ 22.3 µM) | 250 µg/mL (≈ 446 µM) | 100 µg/mL (≈ 178 µM) | 174 µg/mL (≈ 310 µM)
N#Cc1c(-c2cccc(Br)c2)c(C#N)c(=O)n(/N=C/c2cn(-c3ccccc3)nc2-c2ccccc2)c1N | > 200 µg/mL | 250 µg/mL (≈ 446 µM) | 250 µg/mL (≈ 446 µM) | 500 µg/mL (≈ 892 µM) | 100 µg/mL (≈ 178 µM) | 42 µg/mL (≈ 74.9 µM)
N#Cc1c(-c2ccc(Br)cc2)c(C#N)c(=O)n(/N=C/c2cn(-c3ccccc3)nc2-c2ccccc2)c1N | > 200 µg/mL | 100 µg/mL (≈ 178 µM) | 12.5 µg/mL (≈ 22.3 µM) | 100 µg/mL (≈ 178 µM) | 500 µg/mL (≈ 892 µM) | > 200 µg/mL
N#Cc1c(-c2ccccc2C(F)(F)F)c(C#N)c(=O)n(/N=C/c2cn(-c3ccccc3)nc2-c2ccccc2)c1N | > 200 µg/mL | 250 µg/mL (≈ 455 µM) | 100 µg/mL (≈ 182 µM) | 250 µg/mL (≈ 455 µM) | 100 µg/mL (≈ 182 µM) | 56 µg/mL (≈ 102 µM)
N#Cc1c(-c2ccc(C(F)(F)F)cc2)c(C#N)c(=O)n(/N=C/c2cn(-c3ccccc3)nc2-c2ccccc2)c1N | > 200 µg/mL | 25 µg/mL (≈ 45.5 µM) | 25 µg/mL (≈ 45.5 µM) | 250 µg/mL (≈ 455 µM) | 250 µg/mL (≈ 455 µM) | > 200 µg/mL
N#Cc1c(-c2ccccc2)c(C#N)c(=O)n(/N=C/c2cn(-c3ccccc3)nc2-c2ccccc2)c1N | > 200 µg/mL | 500 µg/mL (≈ 1040 µM) | 500 µg/mL (≈ 1040 µM) | 500 µg/mL (≈ 1040 µM) | 250 µg/mL (≈ 519 µM) | 180 µg/mL (≈ 374 µM)
N#Cc1c(-c2ccccc2O)c(C#N)c(=O)n(/N=C/c2cn(-c3ccccc3)nc2-c2ccccc2)c1N | > 200 µg/mL | 500 µg/mL (≈ 1000 µM) | 500 µg/mL (≈ 1000 µM) | 250 µg/mL (≈ 502 µM) | 500 µg/mL (≈ 1000 µM) | 162 µg/mL (≈ 326 µM)
N#Cc1c(-c2ccc(O)cc2)c(C#N)c(=O)n(/N=C/c2cn(-c3ccccc3)nc2-c2ccccc2)c1N | > 200 µg/mL | 500 µg/mL (≈ 1000 µM) | 500 µg/mL (≈ 1000 µM) | 500 µg/mL (≈ 1000 µM) | 500 µg/mL (≈ 1000 µM) | 110 µg/mL (≈ 221 µM)
N#Cc1c(-c2ccccc2Cl)c(C#N)c(=O)n(/N=C/c2cn(-c3ccccc3)nc2-c2ccccc2)c1N | > 200 µg/mL | 100 µg/mL (≈ 194 µM) | 100 µg/mL (≈ 194 µM) | 100 µg/mL (≈ 194 µM) | 100 µg/mL (≈ 194 µM) | 84 µg/mL (≈ 163 µM)
N#Cc1c(-c2cccc(Cl)c2)c(C#N)c(=O)n(/N=C/c2cn(-c3ccccc3)nc2-c2ccccc2)c1N | > 200 µg/mL | 250 µg/mL (≈ 485 µM) | 500 µg/mL (≈ 969 µM) | 100 µg/mL (≈ 194 µM) | 50 µg/mL (≈ 96.9 µM) | 52 µg/mL (≈ 101 µM)
N#Cc1c(-c2ccc(Cl)cc2)c(C#N)c(=O)n(/N=C/c2cn(-c3ccccc3)nc2-c2ccccc2)c1N | > 200 µg/mL | 500 µg/mL (≈ 969 µM) | 100 µg/mL (≈ 194 µM) | 12.5 µg/mL (≈ 24.2 µM) | 500 µg/mL (≈ 969 µM) | 64 µg/mL (≈ 124 µM)
N#Cc1c(-c2ccccc2F)c(C#N)c(=O)n(/N=C/c2cn(-c3ccccc3)nc2-c2ccccc2)c1N | > 200 µg/mL | 50 µg/mL (≈ 100 µM) | 25 µg/mL (≈ 50 µM) | 25 µg/mL (≈ 50 µM) | 250 µg/mL (≈ 500 µM) | > 200 µg/mL
N#Cc1c(-c2cccc(F)c2)c(C#N)c(=O)n(/N=C/c2cn(-c3ccccc3)nc2-c2ccccc2)c1N | > 200 µg/mL | 50 µg/mL (≈ 100 µM) | 50 µg/mL (≈ 100 µM) | 50 µg/mL (≈ 100 µM) | 100 µg/mL (≈ 200 µM) | 154 µg/mL (≈ 308 µM)
N#Cc1c(-c2ccc(F)cc2)c(C#N)c(=O)n(/N=C/c2cn(-c3ccccc3)nc2-c2ccccc2)c1N | > 200 µg/mL | 25 µg/mL (≈ 50 µM) | 12.5 µg/mL (≈ 25 µM) | 100 µg/mL (≈ 200 µM) | 12.5 µg/mL (≈ 25 µM) | > 200 µg/mL
Cc1ccc(-c2c(C#N)c(N)n(/N=C/c3cn(-c4ccccc4)nc3-c3ccccc3)c(=O)c2C#N)cc1 | > 200 µg/mL | 250 µg/mL (≈ 504 µM) | 500 µg/mL (≈ 1010 µM) | 250 µg/mL (≈ 504 µM) | 500 µg/mL (≈ 1010 µM) | 98 µg/mL (≈ 198 µM)
COc1ccc(-c2c(C#N)c(N)n(/N=C/c3cn(-c4ccccc4)nc3-c3ccccc3)c(=O)c2C#N)cc1 | > 200 µg/mL | 500 µg/mL (≈ 977 µM) | 500 µg/mL (≈ 977 µM) | 250 µg/mL (≈ 489 µM) | 500 µg/mL (≈ 977 µM) | 50 µg/mL (≈ 97.7 µM)
COc1cc(-c2c(C#N)c(N)n(/N=C/c3cn(-c4ccccc4)nc3-c3ccccc3)c(=O)c2C#N)cc(OC)c1OC | > 200 µg/mL | 250 µg/mL (≈ 437 µM) | 500 µg/mL (≈ 875 µM) | 250 µg/mL (≈ 437 µM) | 500 µg/mL (≈ 875 µM) | 64 µg/mL (≈ 112 µM)
N#Cc1c(-c2ccccc2[N+](=O)[O-])c(C#N)c(=O)n(/N=C/c2cn(-c3ccccc3)nc2-c2ccccc2)c1N | > 200 µg/mL | 100 µg/mL (≈ 190 µM) | 25 µg/mL (≈ 47.5 µM) | 250 µg/mL (≈ 475 µM) | 25 µg/mL (≈ 47.5 µM) | > 200 µg/mL
O=C(O)c1cn(C2CC2)c2cc(N3CCNCC3)c(F)cc2c1=O [CIPROFLOXACIN] |  |  | 50 µg/mL (≈ 151 µM) | 50 µg/mL (≈ 151 µM) | 25 µg/mL (≈ 75.4 µM) | 
